# Laboratory results: PubChem BioAssay (NCI)
# Values joined by “and” are separate entries in the source; they are usually repeats but may differ in a detail not shown here. Identical values can stand only once.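 Protocol summary: plate cells (96-well), add compound at 5 concentrations, incubate 48 h, interpolate endpoints linearly. Abbreviation: GI50, concentration required for 50% inhibition of growth. TGI: total growth inhibition.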
# Experiments:
# Assay in all cases: inhibition of tumour cell growth, NCI panel, 48 h
# COLO 205 colon = tested on: COLO 205 colon
# HCC-2998 colon = tested on: HCC-2998 colon
# HL-60(TB) leukemia = tested on: HL-60(TB) leukemia
# HT29 colon = tested on: HT29 colon
# K-562 leukemia = tested on: K-562 leukemia
# MOLT-4 leukemia = tested on: MOLT-4 leukemia
# OVCAR-4 ovarian = tested on: OVCAR-4 ovarian
# SK-MEL-28 melanoma = tested on: SK-MEL-28 melanoma
# SK-MEL-5 melanoma = tested on: SK-MEL-5 melanoma
# SK-OV-3 ovarian = tested on: SK-OV-3 ovarian
Structure (SMILES),TGI (COLO 205 colon),TGI (HCC-2998 colon),TGI (HL-60(TB) leukemia) [µM],TGI (HT29 colon),TGI (K-562 leukemia),TGI (MOLT-4 leukemia) [µM],TGI (OVCAR-4 ovarian),TGI (SK-MEL-28 melanoma),TGI (SK-MEL-5 melanoma),TGI (SK-OV-3 ovarian),GI50 (COLO 205 colon) [µM],GI50 (HCC-2998 colon) [µM],GI50 (HL-60(TB) leukemia) [µM],GI50 (HT29 colon) [µM],GI50 (K-562 leukemia) [µM],GI50 (MOLT-4 leukemia) [µM],GI50 (OVCAR-4 ovarian) [µM],GI50 (SK-MEL-28 melanoma) [µM],GI50 (SK-MEL-5 melanoma) [µM],GI50 (SK-OV-3 ovarian) [µM]
Cc1cc2c(cc1C)NC1=C(N2)OC(c2c[nH]c3ccc(COc4ccccc4)cc23)C1=O (configuration not stated),> 100 µM,98.5 µM,> 100,> 100 µM,> 100 µM,> 100,> 100 µM,> 100 µM,> 100 µM,> 100 µM,,,,,,,,,,
COC(=O)c1ccc2c(c1)C(NC(C)=O)CCc1cc(OC)c(OC)c(OC)c1-2 (configuration not stated),0.0194 µM,0.706 µM,0.0285,1.28 µM,28.1 µM,51.6,> 100 µM,> 100 µM,0.216 µM,13.9 µM,,,,,,,,,,
CCOC(=O)c1c(NC(=O)c2ccc(C(C)C)cc2)sc2c(CN(C)C)c(O)ccc12,4.5 µM,3.51 µM,4.2,14.1 µM,3.28 µM,4.92,13.3 µM,3.24 µM,3.11 µM,9.22 µM,2.06,1.88,1.77,3.26,0.535,2.05,3.7,1.73,1.73,3
Cn1cc(C2=C(c3cn(C)c4ccc(N)cc34)C(=O)NC2=O)c2ccccc21,> 20.5 µM,> 25 µM,> 25,> 25 µM,> 25 µM,> 25,> 25 µM,> 25 µM,> 25 µM,> 25 µM,6,> 25,7.41,5.82,1.92,10.2,> 20.2,17.2,6.91,8.99
N/C(=N\OC(=O)c1ccccc1)C(C(=O)NOC(=O)c1ccccc1)C1CCCCC1 (configuration not stated),26.8 µM,27.2 µM,6.07,35.2 µM,10.6 µM,49.8,37.6 µM,50.7 µM,22.8 µM,29.7 µM,11.6,13.5,2.38,16.1,3.08,6.62,9.4,16.2,10.3,15.8
CCN(c1ccc(CO)c(Cl)c1)C(C)c1ccc(F)cc1 (configuration not stated),35.5 µM,32.8 µM,38.1,30 µM,24.7 µM,40,20.7 µM,30.6 µM,28 µM,29.2 µM,18.9,16.6,17.9,15.5,9.86,19.3,7.97,16.1,14.5,15.7
COc1cc(-c2oc3ccccc3c(=O)c2O)cc(OC)c1OC,> 100 µM,> 100 µM,> 28.1,> 100 µM,> 100 µM,> 100,> 100 µM,> 100 µM,> 100 µM,> 100 µM,,,,,,,,,,
COc1ccc(-c2cc(-c3ccc(Cl)cc3)c(C#N)c(=O)n2CCCCC(=O)Nc2ccccc2N)cc1,> 100 µM,79.9 µM,5.7,> 100 µM,> 100 µM,> 100,> 100 µM,> 100 µM,4.48 µM,54.3 µM,4.04,6.2,2.08,3.44,4.18,4.89,10.5,9.13,2.05,11.3
COc1ccc(C2SC(N)=Nc3c2c(C)nn3C(=O)c2ccc(Cl)cc2)cc1OC (configuration not stated),> 10 µM,> 10 µM,> 10,> 10 µM,> 10 µM,> 10,> 10 µM,> 10 µM,> 10 µM,> 10 µM,,,,,,,,,,
Cc1nc2c(n1CC(C)(C)C)C(=O)c1ccccc1C2=O,> 100 µM,> 100 µM,> 100,> 100 µM,> 100 µM,> 100,> 100 µM,> 100 µM,> 100 µM,> 100 µM,,,,,,,,,,
CNC(=O)Nc1ccc(-c2nc(N3CCOCC3)nc3c2cnn3C2CCOCC2)cc1,> 100 µM,> 100 µM,> 100,> 100 µM,> 100 µM,> 26.8,,2.22 µM,1.22 µM,0.685 µM,0.247,0.307,1.01,0.295,0.533,0.355,0.191,0.164,0.208,0.12
CSc1ccc(C2=Nn3c(nnc3-c3ccc(F)c(Cl)c3)SC2)cc1,> 100 µM,> 100 µM,> 100,29.7 µM,> 100 µM,> 100,85.1 µM,> 100 µM,52.7 µM,41.9 µM,25.9,24,5.39,5.73,2.28,7.2,23.6,34.2,11.9,13.5
CCN(CC)c1ccc(NC(=S)NN(C)C)cc1,> 10 µM,> 10 µM,> 10,> 10 µM,> 10 µM,> 10,> 10 µM,> 10 µM,> 10 µM,> 10 µM,,,,,,,,,,
COc1cc(C2c3cc4c(cc3[C@@H](Nc3ccc(N(C)C)cc3)[C@H]3COC(=O)C23)OCO4)cc(OC)c1O (some centres not stated),8.04 µM and 18.9 µM,3.89 µM and 8.71 µM,2.51,4.64 µM and 11.3 µM,75 µM and 36.8 µM,,18.7 µM and 25.8 µM,14.9 µM and 28.2 µM,2.46 µM and 4.52 µM,2.23 µM and 5.72 µM,3.51,2.36,,2.46,2.41,< 0.0075,13,12.1,1.12,0.279
